In PubChem BioAssay AID810 (The Scripps Research Institute Molecular Screening Center, 2007):
Active and inactive are the calls of the source. The rule behind the calls is not given here.

Biological target: Focal adhesion kinase 1 (Homo sapiens) (UniProt Q05397)
Assay: human PTK2 enzyme blockers, IC50 – biochemical, dose response (AID 810)
Conditions: Recombinant FAK kinase activity inhibition assay

Focal adhesion kinase 1 (Homo sapiens), sequence (Q05397 whole entry, looked up): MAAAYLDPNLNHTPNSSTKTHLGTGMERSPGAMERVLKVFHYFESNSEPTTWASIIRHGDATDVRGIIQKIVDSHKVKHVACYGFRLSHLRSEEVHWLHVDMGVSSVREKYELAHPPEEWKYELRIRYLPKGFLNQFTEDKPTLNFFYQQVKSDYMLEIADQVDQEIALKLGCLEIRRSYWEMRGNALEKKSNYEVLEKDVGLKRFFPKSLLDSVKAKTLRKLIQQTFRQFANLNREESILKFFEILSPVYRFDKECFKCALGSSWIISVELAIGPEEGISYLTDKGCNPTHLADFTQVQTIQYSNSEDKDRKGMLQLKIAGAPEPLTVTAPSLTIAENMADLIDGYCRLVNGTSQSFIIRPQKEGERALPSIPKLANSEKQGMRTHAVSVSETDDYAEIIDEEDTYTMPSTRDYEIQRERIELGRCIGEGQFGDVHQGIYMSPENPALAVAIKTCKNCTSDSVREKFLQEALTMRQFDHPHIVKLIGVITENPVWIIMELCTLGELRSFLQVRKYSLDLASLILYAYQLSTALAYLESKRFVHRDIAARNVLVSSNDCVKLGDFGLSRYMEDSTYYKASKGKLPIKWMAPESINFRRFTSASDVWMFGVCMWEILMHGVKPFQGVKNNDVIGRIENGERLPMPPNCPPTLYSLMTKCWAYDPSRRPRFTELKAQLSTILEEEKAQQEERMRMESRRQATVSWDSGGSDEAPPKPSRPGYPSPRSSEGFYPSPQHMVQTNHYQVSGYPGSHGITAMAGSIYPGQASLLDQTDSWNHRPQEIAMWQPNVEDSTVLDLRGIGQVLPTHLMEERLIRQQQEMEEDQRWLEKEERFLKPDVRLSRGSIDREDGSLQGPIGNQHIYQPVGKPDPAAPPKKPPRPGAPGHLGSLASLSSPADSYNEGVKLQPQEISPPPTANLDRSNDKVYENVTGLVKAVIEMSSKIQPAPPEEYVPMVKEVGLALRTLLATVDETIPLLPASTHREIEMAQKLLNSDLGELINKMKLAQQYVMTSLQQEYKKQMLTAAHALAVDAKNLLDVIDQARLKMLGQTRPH

| SMILES | IC50 |
| --- | --- |
| CCOC(=O)C1=C(c2ccccc2)OC(N)=C(C#N)C1c1cccs1 (stereo unspecified) | > 70 µM (inactive) |
| COC(=O)C1=C(C)NC2=C(C(=O)CC(c3cccs3)C2)C1c1ccsc1 (stereo unspecified) | > 70 µM (inactive) |
| COc1cccc(CN2CC(O)=C(c3nc(-c4ccc(Cl)cc4)cs3)C2=N)c1 | inactive |
| COc1cc(N=Cc2c(O)[nH]c3ccccc23)cc(OC)c1OC | 3.13 µM |
| COCCOC(=O)C1=C(C)NC2=C(C(=O)CC(c3cccs3)C2)C1c1ccsc1 (stereo unspecified) | > 70 µM (inactive) |
| N#Cc1ccccc1/C=N/Nc1nc(-c2ccccc2)c2cc(Cl)ccc2n1 | inactive |
| CCOC(=O)C1=C(c2ccccc2)OC(N)=C(C#N)C1C1CCCCC1 (stereo unspecified) | > 70 µM (inactive) |
| O=[N+]([O-])c1cc(/C=N\Nc2nccs2)ccc1O | 5.82 µM |
| O=c1c(/C=N/O)c(Nc2ccccc2)nc2ccccn12 | inactive |
| CCOCCOC(=O)C1=C(C)NC2=C(C(=O)CC(c3cccs3)C2)C1c1ccsc1 (stereo unspecified) | > 70 µM (inactive) |
| O=C1C(c2ccnc3ccccc23)=C(O)c2ccccc21 | 5.64 µM |
| CCOC(=O)c1sc2c(c1C)C(c1cccs1)C1=C(CCCC1=O)N2 (stereo unspecified) | > 70 µM (inactive) |
| CN1CCc2c(sc3ncn4nc(-c5ccccc5O)nc4c23)C1 | inactive |
| COC(=O)c1cccc2c1-c1ccccc1/C2=N/O | 9.43 µM |
| CCOC(=O)c1cccc2c1-c1ccccc1/C2=N/O | inactive |
| Cc1nn2c(c1-c1ccccc1)NC1=C(C(=O)CCC1)C2c1ccccc1 (stereo unspecified) | > 70 µM (inactive) |
